Test results: patent US8901124B2, “Pyridazine amide compounds useful as SYK inhibitors” (priority 2012, dated 2014)

Tested on: HUMAN WHOLE BLOOD
Assay: IC50 in human whole blood
Type: cell-based

SMILES | IC50
Cn1cnc2c(Nc3cc(N[C@@H]4CCCC[C@@H]4N)nnc3C(N)=O)cccc21 [Compound I-22, 6-((1R,2S)-2-aminocyclohexylamino)-4-(1-methyl-1H-benzo[d]imidazol-4-ylamino)pyridazine-3-carboxamide] | 21500 nM
NC(=O)c1nnc(N[C@@H]2CCCC[C@@H]2N)cc1Nc1cccc(-n2nccn2)n1 [Compound I-23, 4-(6-(2H-1,2,3-triazol-2-yl)pyridin-2-ylamino)-6-((1R,2S)-2-aminocyclohexylamino)pyridazine-3-carboxamide] | 810 nM
Cc1ccc(Nc2cc(N[C@@H]3CCOC[C@@H]3N)nnc2C(N)=O)nc1C(C)C [Compound I-27, 6-((3R,4R)-3-Amino-tetrahydro-pyran-4-ylamino)-4-(6-isopropyl-5-methyl-pyridin-2-ylamino)-pyridazine-3-carboxylic acid amide] | 313 nM
CC(C)(C)c1cccc(Nc2cc(N[C@@H]3CCOC[C@@H]3N)nnc2C(N)=O)n1 [Compound I-29, 6-((3R,4R)-3-aminotetrahydro-2H-pyran-4-ylamino)-4-(6-tert-butylpyridin-2-ylamino)pyridazine-3-carboxamide] | 1800 nM
CCOc1cccc(Nc2cc(N[C@@H]3CCCC[C@@H]3N)nnc2C(N)=O)n1 [Compound I-30, 6-((1R,2S)-2-aminocyclohexylamino)-4-(6-ethoxypyridin-2-ylamino)pyridazine-3-carboxamide] | 487 nM
NC(=O)c1nnc(N[C@@H]2CCCC[C@@H]2N)cc1Nc1cccc(-n2cccn2)n1 [Compound I-33, 4-(6-(1H-pyrazol-1-yl)pyridin-2-ylamino)-6-((1R,2S)-2-aminocyclohexylamino)pyridazine-3-carboxamide] | 1420 nM
Cc1cc(Nc2cc(N[C@@H]3CCCC[C@@H]3N)nnc2C(N)=O)nc(C(C)C)c1 [Compound I-35, 6-((1R,2S)-2-aminocyclohexylamino)-4-(6-isopropyl-4-methylpyridin-2-ylamino)pyridazine-3-carboxamide] | 923 nM
CC(C)(C#N)c1cccc(Nc2cc(N[C@@H]3CCCC[C@@H]3N)nnc2C(N)=O)n1 [Compound I-36, 6-((1R,2S)-2-aminocyclohexylamino)-4-(6-(2-cyanopropan-2-yl)pyridin-2-ylamino)pyridazine-3-carboxamide] | 2090 nM
CC(C)(O)c1cccc(Nc2cc(N[C@@H]3CCCC[C@@H]3N)nnc2C(N)=O)n1 [Compound I-37, 6-((1R,2S)-2-aminocyclohexylamino)-4-(6-(2-hydroxypropan-2-yl)pyridin-2-ylamino)pyridazine-3-carboxamide] | 2340 nM
CCCc1cc(C)cc(Nc2cc(N[C@@H]3CCCC[C@@H]3N)nnc2C(N)=O)n1 [Compound I-38, 6-((1R,2S)-2-aminocyclohexylamino)-4-(4-methyl-6-propylpyridin-2-ylamino)pyridazine-3-carboxamide] | 642 nM
CCCc1cc(C)cc(Nc2cc(N[C@@H]3CCOC[C@@H]3N)nnc2C(N)=O)n1 [Compound I-39, 6-((3R,4R)-3-aminotetrahydro-2H-pyran-4-ylamino)-4-(4-methyl-6-propylpyridin-2-ylamino)pyridazine-3-carboxamide] | 818 nM
CCCc1nc(Nc2cc(N[C@@H]3CCOC[C@@H]3N)nnc2C(N)=O)ccc1OC [Compound I-40, 6-((3R,4R)-3-aminotetrahydro-2H-pyran-4-ylamino)-4-(5-methoxy-6-propylpyridin-2-ylamino)pyridazine-3-carboxamide] | 332 nM
COc1nc(Nc2cc(N[C@@H]3CCOC[C@@H]3N)nnc2C(N)=O)ccc1C(C)C [Compound I-42, 6-((3R,4R)-3-aminotetrahydro-2H-pyran-4-ylamino)-4-(5-isopropyl-6-methoxypyridin-2-ylamino)pyridazine-3-carboxamide] | 909 nM
CC(C)Oc1cccc(Nc2cc(N[C@@H]3CCOC[C@@H]3N)nnc2C(N)=O)n1 [Compound I-43, 6-((3R,4R)-3-aminotetrahydro-2H-pyran-4-ylamino)-4-(6-isopropoxypyridin-2-ylamino)pyridazine-3-carboxamide] | 372 nM
